Source: ChEMBL document CHEMBL1147014, “Synthesis and biological evaluation of a novel structural type of serotonin 5-HT3 receptor antagonists” (Bioorg Med Chem Lett, 2006)

Each compound was assayed against T1, 5-hydroxytryptamine receptor 3A (Cavia porcellus, UniProt O70212) (assay: Antagonist effect against 2-methyl-5-HT activity at 5-HT3 receptor in longitudinal muscle myenteric plexus from guinea pig ileum). Conditions: read-out: pA2 (converted).
T1 sequence (O70212 whole entry): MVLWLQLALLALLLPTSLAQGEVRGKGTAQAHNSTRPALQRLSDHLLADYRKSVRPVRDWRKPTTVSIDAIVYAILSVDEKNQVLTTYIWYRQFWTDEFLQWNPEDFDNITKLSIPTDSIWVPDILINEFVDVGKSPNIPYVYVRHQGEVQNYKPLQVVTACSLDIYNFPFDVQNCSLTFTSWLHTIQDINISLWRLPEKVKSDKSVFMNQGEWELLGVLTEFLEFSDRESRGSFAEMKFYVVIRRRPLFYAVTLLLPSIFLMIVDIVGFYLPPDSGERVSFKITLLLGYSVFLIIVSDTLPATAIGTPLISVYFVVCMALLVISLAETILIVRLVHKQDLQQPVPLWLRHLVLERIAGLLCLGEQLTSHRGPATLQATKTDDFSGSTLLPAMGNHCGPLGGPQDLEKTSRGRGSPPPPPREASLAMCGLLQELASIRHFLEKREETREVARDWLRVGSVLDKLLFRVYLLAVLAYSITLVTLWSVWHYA
Type: functional, tissue-based

Kb [µM] | Structure (SMILES)
398 | CCOc1nc2ccccc2nc1C(=O)Nc1ccc(O)c(CN2CCNCC2)c1
1000 | COc1nc2ccccc2nc1C(=O)Nc1ccc(O)c(CN2CCOCC2)c1
126 | COc1nc2ccccc2nc1C(=O)Nc1ccc(O)c(CN2CCCC2)c1
316 | COc1nc2ccccc2nc1C(=O)Nc1ccc(O)c(CN2CCCCC2)c1
15.8 | COc1nc2ccccc2nc1C(=O)Nc1cc(CN2CCN(C)CC2)c(O)c(N2CCN(C)CC2)c1
79.4 | CCN1CCN(Cc2cc(NC(=O)c3nc4ccccc4nc3OC)cc(N3CCN(CC)CC3)c2O)CC1
31.6 | COc1nc2ccccc2nc1C(=O)Nc1ccc(O)c(CN2CCNCC2)c1
2 | COc1nc2ccccc2nc1C(=O)Nc1ccc(O)c(CN2CCN(C)CC2)c1
794 | CCOc1nc2ccccc2nc1C(=O)Nc1ccc(O)c(CN2CCCCC2)c1
100 | COc1nc2ccccc2nc1C(=O)Nc1cc(CN2CCNCC2)c(O)c(N2CCNCC2)c1
25.1 | CCOc1nc2ccccc2nc1C(=O)Nc1ccc(O)c(CN2CCN(C)CC2)c1
126 | CCOc1nc2ccccc2nc1C(=O)Nc1ccc(O)c(CN2CCN(CC)CC2)c1
316 | CCOc1nc2ccccc2nc1C(=O)Nc1ccc(O)c(CN2CCCC2)c1
12.6 | CCN1CCN(Cc2cc(NC(=O)c3nc4ccccc4nc3OC)ccc2O)CC1

Structure (SMILES) | Kb [µM]
CCOc1nc2ccccc2nc1C(=O)Nc1cc(CN2CCNCC2)c(O)c(N2CCNCC2)c1 | > 1000
CCOc1nc2ccccc2nc1C(=O)Nc1cc(CN2CCCC2)c(O)c(N2CCCC2)c1 | > 1000
COc1nc2ccccc2nc1C(=O)Nc1cc(CN2CCOCC2)c(O)c(N2CCOCC2)c1 | > 1000
CCOc1nc2ccccc2nc1C(=O)Nc1cc(CN2CCN(CC)CC2)c(O)c(N2CCN(CC)CC2)c1 | > 1000
CCOc1nc2ccccc2nc1C(=O)Nc1cc(CN2CCN(C)CC2)c(O)c(N2CCN(C)CC2)c1 | > 1000
CCOc1nc2ccccc2nc1C(=O)Nc1cc(CN2CCOCC2)c(O)c(N2CCOCC2)c1 | > 1000
CCOc1nc2ccccc2nc1C(=O)Nc1ccc(O)c(CN2CCOCC2)c1 | > 1000
COc1nc2ccccc2nc1C(=O)Nc1cc(CN2CCCC2)c(O)c(N2CCCC2)c1 | > 1000
